In patent US20240217961A1 (MONOPTEROS THERAPEUTICS, INC., priority 2021, published 2024):
Values after ≈ are worked out from the molar mass of the structure shown. Like-named read-outs stand apart in the source and are kept apart here.

Assays:
human CYP2A6 = target: T1, human CYP2A6 (Homo sapiens, UniProt P11509); assay: CYP phenotyping, recombinant CYP enzyme incubation; type: in vitro ADME
T1 sequence (P11509 1-494): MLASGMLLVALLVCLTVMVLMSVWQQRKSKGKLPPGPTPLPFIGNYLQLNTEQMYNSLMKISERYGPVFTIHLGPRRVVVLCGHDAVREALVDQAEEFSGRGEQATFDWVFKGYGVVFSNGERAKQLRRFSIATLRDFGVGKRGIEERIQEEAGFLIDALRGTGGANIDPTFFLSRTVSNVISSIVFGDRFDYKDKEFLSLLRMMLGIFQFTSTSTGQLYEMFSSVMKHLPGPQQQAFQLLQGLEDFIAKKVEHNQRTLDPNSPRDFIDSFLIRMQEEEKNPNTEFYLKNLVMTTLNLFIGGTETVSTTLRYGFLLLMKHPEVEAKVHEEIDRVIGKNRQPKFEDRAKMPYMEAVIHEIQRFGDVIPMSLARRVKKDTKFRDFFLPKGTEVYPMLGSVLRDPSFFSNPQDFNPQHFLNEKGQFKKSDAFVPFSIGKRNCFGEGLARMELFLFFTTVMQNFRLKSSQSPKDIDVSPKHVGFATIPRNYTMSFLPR
Method: (§1) These incubations were carried out at a concentration of 1 µM and contained 50 pmol/ml of CYP protein. Samples were taken at 0, 5, 10, 15, 20 and 30 minutes. The CLint and t1/2 were calculated from the data.

CYP3A4 = CYP3A4 (Homo sapiens, UniProt P08684); assay: CYP phenotyping, recombinant CYP enzyme incubation; type: in vitro ADME
CYP3A4, sequence (P08684 whole entry): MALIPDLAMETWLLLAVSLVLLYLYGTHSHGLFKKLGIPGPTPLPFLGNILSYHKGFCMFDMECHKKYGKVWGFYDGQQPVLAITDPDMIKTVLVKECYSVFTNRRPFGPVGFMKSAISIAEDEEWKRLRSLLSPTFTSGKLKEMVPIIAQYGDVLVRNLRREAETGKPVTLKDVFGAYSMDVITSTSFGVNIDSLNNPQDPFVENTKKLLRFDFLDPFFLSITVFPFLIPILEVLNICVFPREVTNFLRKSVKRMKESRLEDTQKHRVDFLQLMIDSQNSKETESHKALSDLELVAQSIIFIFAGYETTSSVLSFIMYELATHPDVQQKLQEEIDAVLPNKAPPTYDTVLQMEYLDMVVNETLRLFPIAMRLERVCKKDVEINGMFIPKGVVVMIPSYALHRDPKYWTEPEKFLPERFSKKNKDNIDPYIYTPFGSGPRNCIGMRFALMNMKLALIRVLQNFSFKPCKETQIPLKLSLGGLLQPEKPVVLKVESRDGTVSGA
Method: as §1

CYP1A2 = target: T2, CYP1A2 (Homo sapiens, UniProt P05177); assay: CYP phenotyping, recombinant CYP enzyme incubation; type: in vitro ADME
T2 sequence (P05177 1-516): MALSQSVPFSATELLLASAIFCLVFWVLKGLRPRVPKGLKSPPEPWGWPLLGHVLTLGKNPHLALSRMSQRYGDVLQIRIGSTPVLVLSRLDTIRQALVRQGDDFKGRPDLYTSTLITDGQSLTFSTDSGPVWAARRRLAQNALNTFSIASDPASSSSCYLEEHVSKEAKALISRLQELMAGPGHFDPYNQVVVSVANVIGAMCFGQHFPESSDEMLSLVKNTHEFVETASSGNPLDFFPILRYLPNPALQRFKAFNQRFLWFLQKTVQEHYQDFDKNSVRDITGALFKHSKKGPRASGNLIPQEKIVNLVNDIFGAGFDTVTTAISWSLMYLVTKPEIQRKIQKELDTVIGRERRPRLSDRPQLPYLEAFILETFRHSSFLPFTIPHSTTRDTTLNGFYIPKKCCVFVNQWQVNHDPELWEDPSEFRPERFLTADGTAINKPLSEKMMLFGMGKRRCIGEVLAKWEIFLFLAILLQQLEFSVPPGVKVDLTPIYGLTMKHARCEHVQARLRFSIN
Method: as §1

CYP2D6 = CYP2D6 (Homo sapiens, UniProt P10635); assay: CYP phenotyping, recombinant CYP enzyme incubation; type: in vitro ADME
CYP2D6, sequence (P10635 whole entry): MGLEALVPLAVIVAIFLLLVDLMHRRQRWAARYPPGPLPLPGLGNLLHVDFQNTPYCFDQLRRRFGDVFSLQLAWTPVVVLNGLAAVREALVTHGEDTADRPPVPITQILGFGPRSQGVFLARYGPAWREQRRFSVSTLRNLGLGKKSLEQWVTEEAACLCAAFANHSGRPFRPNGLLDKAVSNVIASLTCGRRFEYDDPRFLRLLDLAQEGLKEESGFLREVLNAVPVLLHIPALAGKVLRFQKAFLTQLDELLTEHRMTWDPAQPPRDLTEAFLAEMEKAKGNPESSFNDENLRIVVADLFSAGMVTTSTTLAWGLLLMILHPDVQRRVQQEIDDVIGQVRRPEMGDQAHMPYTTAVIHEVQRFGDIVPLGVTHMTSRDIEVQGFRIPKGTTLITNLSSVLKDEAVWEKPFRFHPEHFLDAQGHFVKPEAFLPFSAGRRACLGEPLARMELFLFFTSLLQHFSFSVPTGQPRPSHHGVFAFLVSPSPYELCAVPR
Method: as §1

human CYP2B6 = target: T3, human CYP2B6 (Homo sapiens, UniProt P20813); assay: CYP phenotyping, recombinant CYP enzyme incubation; type: in vitro ADME
T3 sequence (P20813 1-491): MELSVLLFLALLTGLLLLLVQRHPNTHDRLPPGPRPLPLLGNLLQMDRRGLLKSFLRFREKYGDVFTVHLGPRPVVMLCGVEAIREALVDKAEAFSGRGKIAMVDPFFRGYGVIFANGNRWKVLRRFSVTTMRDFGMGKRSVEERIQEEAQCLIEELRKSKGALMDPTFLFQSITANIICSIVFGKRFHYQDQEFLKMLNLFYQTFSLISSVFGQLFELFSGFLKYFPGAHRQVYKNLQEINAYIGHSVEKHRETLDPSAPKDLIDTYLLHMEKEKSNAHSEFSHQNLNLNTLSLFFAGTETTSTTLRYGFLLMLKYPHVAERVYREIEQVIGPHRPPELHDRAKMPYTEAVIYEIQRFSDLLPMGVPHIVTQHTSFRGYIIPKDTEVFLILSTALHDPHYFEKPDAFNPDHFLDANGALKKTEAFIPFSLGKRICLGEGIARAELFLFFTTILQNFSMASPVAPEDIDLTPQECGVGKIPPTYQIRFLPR
Method: as §1

CYP2C9 = CYP2C9 (Homo sapiens, UniProt P11712); assay: CYP phenotyping, recombinant CYP enzyme incubation; type: in vitro ADME
CYP2C9, sequence (P11712 whole entry): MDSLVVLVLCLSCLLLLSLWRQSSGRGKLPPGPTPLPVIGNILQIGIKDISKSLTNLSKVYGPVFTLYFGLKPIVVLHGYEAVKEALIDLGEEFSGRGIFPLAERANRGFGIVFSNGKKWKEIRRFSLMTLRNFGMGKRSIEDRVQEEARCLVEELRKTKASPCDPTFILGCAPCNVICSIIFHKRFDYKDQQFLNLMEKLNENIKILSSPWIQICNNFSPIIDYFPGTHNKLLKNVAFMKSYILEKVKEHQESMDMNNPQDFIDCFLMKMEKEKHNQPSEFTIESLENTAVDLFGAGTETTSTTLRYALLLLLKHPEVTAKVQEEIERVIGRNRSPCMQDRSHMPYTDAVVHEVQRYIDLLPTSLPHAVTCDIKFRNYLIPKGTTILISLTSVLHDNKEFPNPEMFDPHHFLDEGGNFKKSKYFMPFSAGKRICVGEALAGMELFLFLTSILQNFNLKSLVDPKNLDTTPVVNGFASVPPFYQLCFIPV
Method: as §1

human CYP3A5 = human CYP3A5 (Homo sapiens, UniProt P20815); assay: CYP phenotyping, recombinant CYP enzyme incubation; type: in vitro ADME
human CYP3A5, sequence (P20815 whole entry): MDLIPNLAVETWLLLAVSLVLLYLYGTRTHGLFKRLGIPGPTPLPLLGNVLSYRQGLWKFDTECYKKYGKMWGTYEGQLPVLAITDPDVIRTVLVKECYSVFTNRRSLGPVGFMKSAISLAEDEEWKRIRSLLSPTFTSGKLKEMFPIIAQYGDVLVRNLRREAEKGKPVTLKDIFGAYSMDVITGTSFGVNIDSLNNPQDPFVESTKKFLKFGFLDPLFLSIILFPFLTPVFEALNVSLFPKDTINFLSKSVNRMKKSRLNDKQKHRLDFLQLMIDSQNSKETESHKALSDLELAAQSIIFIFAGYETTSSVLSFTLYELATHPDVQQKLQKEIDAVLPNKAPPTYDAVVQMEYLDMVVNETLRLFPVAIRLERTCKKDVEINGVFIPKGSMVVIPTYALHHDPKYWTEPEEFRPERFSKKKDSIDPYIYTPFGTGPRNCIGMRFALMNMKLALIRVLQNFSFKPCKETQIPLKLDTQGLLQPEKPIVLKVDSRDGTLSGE
Method: as §1

human CYP2E1 = human CYP2E1 (Homo sapiens, UniProt P05181); assay: CYP phenotyping, recombinant CYP enzyme incubation; type: in vitro ADME
human CYP2E1, sequence (P05181 whole entry): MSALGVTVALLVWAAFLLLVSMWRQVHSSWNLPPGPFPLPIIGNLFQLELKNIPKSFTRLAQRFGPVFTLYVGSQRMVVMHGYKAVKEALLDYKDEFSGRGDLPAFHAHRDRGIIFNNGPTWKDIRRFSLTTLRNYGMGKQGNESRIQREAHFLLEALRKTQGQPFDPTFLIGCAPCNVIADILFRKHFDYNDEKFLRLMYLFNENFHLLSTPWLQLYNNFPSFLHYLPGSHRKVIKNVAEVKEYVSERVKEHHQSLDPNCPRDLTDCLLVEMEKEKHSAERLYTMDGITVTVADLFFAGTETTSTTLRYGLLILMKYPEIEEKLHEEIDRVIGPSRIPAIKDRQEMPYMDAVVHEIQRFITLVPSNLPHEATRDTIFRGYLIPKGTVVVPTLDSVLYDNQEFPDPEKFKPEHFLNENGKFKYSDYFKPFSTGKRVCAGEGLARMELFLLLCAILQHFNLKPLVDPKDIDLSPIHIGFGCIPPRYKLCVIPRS
Method: as §1

pKa of free form (UV) = type: physicochemical
[1] = Approximate solubility of free form in solvents at 25° C. (manual dilution, visual observation); type: physicochemical; settings: thermodynamic from solid, read-out: Solubility (mg/mL) at 25° C.
Method: The experiment was conducted by manual dilution combined with visual observation at 25° C. The total volumes of solvents added were recorded.

Contribution % (human CYP2A6; CYP2A6): 0.00%
metabolism by recombinant CYP isoform (human CYP2A6; recombinant CYP2A6): not found to substantially metabolize
CLint (human CYP2A6; recombinant CYP2A6, 1 µM, turnover not significant and > 80% remaining at last time point reported as 0.00): 0.00 μL/min/pmol CYP
t1/2 (human CYP2A6; recombinant CYP2A6, 1 µM, turnover not significant and > 80% remaining at last time point reported as ∞): ∞
Contribution % (CYP3A4; CYP3A4): 50.3%
contribution % (CYP3A4; CYP3A4): 50.3%
half-life at 1 µM (CYP3A4; human, recombinant CYP3A4, 1 µM, 50 pmol/ml of CYP protein, mean ± SD, n = 3): 23.5 ± 2.35 min
CLint (CYP3A4; recombinant CYP3A4, 1 µM, 50 pmol/ml of CYP protein, mean ± SD, n = 3): 0.593 ± 0.0562 μL/min/pmol CYP
CLint (CYP3A4; recombinant CYP3A4, 1 µM, 50 pmol/ml CYP protein): 0.593 µL/min/pmol
Contribution % (CYP1A2; CYP1A2): 9.61%
contribution % (CYP1A2; CYP1A2): 9.61%
half-life at 1 µM (CYP1A2; human, recombinant CYP1A2, 1 µM, 50 pmol/ml of CYP protein, mean ± SD, n = 3): 51.5 ± 5.99 min
CLint (CYP1A2; recombinant CYP1A2, 1 µM, 50 pmol/ml of CYP protein, mean ± SD, n = 3): 0.272 ± 0.0339 μL/min/pmol CYP
CLint (CYP1A2; recombinant CYP1A2, 1 µM, 50 pmol/ml CYP protein): 0.272 µL/min/pmol
Contribution % (CYP2D6; CYP2D6): 11.0%
contribution % (CYP2D6; CYP2D6): 11.0%
CYP isoform participating in metabolism (CYP2D6; based on expressed human cytochrome P450s and liver microsomes with specific inhibitors): CYP2D6 is major CYP isoform
half-life at 1 µM (CYP2D6; human, recombinant CYP2D6, 1 µM, 50 pmol/ml of CYP protein, mean ± SD, n = 3): 9.94 ± 0.819 min
CLint (CYP2D6; recombinant CYP2D6, 1 µM, 50 pmol/ml of CYP protein, mean ± SD, n = 3): 1.40 ± 0.112 μL/min/pmol CYP
CLint (CYP2D6; recombinant CYP2D6, 1 µM, 50 pmol/ml CYP protein): 1.40 µL/min/pmol
Contribution % (human CYP2B6; CYP2B6): 0.00%
metabolism by recombinant CYP isoform (human CYP2B6; recombinant CYP2B6): not found to substantially metabolize
CLint (human CYP2B6; recombinant CYP2B6, 1 µM, turnover not significant and > 80% remaining at last time point reported as 0.00): 0.00 μL/min/pmol CYP
t1/2 (human CYP2B6; recombinant CYP2B6, 1 µM, turnover not significant and > 80% remaining at last time point reported as ∞): ∞
Contribution % (CYP2C9; CYP2C9): 8.24%
contribution % (CYP2C9; CYP2C9): 8.24%
half-life at 1 µM (CYP2C9; human, recombinant CYP2C9, 1 µM, turnover observed for one or two replicates only, t1/2 reported as minimum): 127 min
CLint (CYP2C9; recombinant CYP2C9, 1 µM, turnover observed for one or two replicates only, Clint reported as maximum): 0.109 μL/min/pmol CYP
CLint (CYP2C9; recombinant CYP2C9, turnover observed in one of the three replicates): 0.109 µL/min/pmol
Contribution % (human CYP3A5): 0.0651%
contribution % (human CYP3A5): 0.0651%
Contribution % (human CYP2E1; CYP2E1): 0.00%
metabolism by recombinant CYP isoform (human CYP2E1; recombinant CYP2E1): not found to substantially metabolize
CLint (human CYP2E1; recombinant CYP2E1, 1 µM, turnover not significant and > 80% remaining at last time point reported as 0.00): 0.00 μL/min/pmol CYP
t1/2 (human CYP2E1; recombinant CYP2E1, 1 µM, turnover not significant and > 80% remaining at last time point reported as ∞): ∞
pKa (pKa of free form (UV)): 9.24
solubility ([1]; 1,4-dioxane, organic solvent or mixture): > 100 mg/mL
solubility ([1]; 2-propanol, organic solvent or mixture): 33.3 to 50 mg/mL (≈ 107 to 161 mM)
solubility ([1]; DMF, organic solvent or mixture): > 100 mg/mL
solubility ([1]; acetone, organic solvent or mixture): > 100 mg/mL
solubility ([1]; acetonitrile, organic solvent or mixture): 25 to 33.3 mg/mL (≈ 80.5 to 107 mM)
solubility ([1]; dichloromethane, organic solvent or mixture): > 100 mg/mL
solubility ([1]; ethanol, organic solvent or mixture): > 100 mg/mL
solubility ([1]; ethyl acetate, organic solvent or mixture): 50 to 100 mg/mL (≈ 161 to 322 mM)
solubility ([1]; heptane, organic solvent or mixture): 10 to 14.3 mg/mL (≈ 32.2 to 46.1 mM)
solubility ([1]; isopropyl acetate, organic solvent or mixture): 50 to 100 mg/mL (≈ 161 to 322 mM)
solubility ([1]; methanol, organic solvent or mixture): > 100 mg/mL
solubility ([1]; methyl ethyl ketone, organic solvent or mixture): > 100 mg/mL
solubility ([1]; t-butyl methyl ether, organic solvent or mixture): 25 to 33.3 mg/mL (≈ 80.5 to 107 mM)
solubility ([1]; tetrahydrofuran, organic solvent or mixture): > 100 mg/mL
solubility ([1]; toluene, organic solvent or mixture): > 100 mg/mL
solubility ([1]; water): < 2 mg/mL
SMILES: CN1CCC[C@H](CN2c3ccccc3Sc3ccccc32)C1 [(S)-mepazine, (S)-10-((1-methylpiperidin-3-yl)methyl)-10H-phenothiazine]
